Results published in patent US20250312499A1, “KISSPEPTIN RECEPTOR (KISS1R) TARGETED THERAPEUTICS AND USES THEREOF” (priority 2024, published 2025).
Numbered stars: 1 amine (or outer) side, 2 acyl side, 3 side chain; on linkers, the order of the positions; unused ones are H or OH. Square brackets hold non-standard residues; d marks the D form. Peptide text beside a SMILES is read from it. * marks the point of attachment. DOTA = O=C(O)CN1CCN(CC(=O)O)CCN(CC(=O)*)CCN(CC(=O)O)CC1; Gly(N-(3-F-4-Me-benzyl)) = Cc1ccc(CNCC(=O)*)cc1F; Bpa = N[C@@H](Cc1ccc(C(=O)c2ccccc2)cc1)C(=O)O; Butanoyl(4-(4-MePh)) = Cc1ccc(CCCC(=O)*)cc1; Api(1-amidino) = N=C(N)N1CCC(N)(C(=O)O)CC1; Hydrocinnamoyl(4-Me) = Cc1ccc(CCC(=O)*)cc1; Bip = N[C@@H](Cc1ccc(-c2ccccc2)cc1)C(=O)O; Phe(3-F) = N[C@@H](Cc1cccc(F)c1)C(=O)O; d2Nal = N[C@H](Cc1ccc2ccccc2c1)C(=O)O; Palmitoyl = CCCCCCCCCCCCCCCC(=O)*; X1 = O=C(CN1CCC(N[*:1])CC1)[*:2]; d4Pal = N[C@H](Cc1ccncc1)C(=O)O; Cha = N[C@@H](CC1CCCCC1)C(=O)O; 4Amb = NCc1ccc(C(=O)O)cc1; Octanoyl = CCCCCCCC(=O)*; Api = NC1(C(=O)O)CCNCC1; PEG2 = NCCOCCOCCC(=O)O; Ahx = NCCCCCC(=O)O; azaGly = NNC(=O)O; Sar = CNCC(=O)O

Target: human kisspeptin receptor (Homo sapiens (Human), UniProt Q969F8)
Sequence (Q969F8 whole entry): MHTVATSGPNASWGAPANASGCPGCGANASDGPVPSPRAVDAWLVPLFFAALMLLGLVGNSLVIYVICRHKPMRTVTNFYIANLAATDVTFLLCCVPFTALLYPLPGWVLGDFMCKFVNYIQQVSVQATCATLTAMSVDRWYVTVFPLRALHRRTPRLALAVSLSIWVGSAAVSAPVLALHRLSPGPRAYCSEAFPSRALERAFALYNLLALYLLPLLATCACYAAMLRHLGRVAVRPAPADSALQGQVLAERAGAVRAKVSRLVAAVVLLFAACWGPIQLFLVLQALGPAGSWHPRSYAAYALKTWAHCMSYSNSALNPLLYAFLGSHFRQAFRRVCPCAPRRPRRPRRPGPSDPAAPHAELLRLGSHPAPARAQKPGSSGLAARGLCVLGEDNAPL
Experiment: Human KISS1R binding assay (membrane competition binding)
Conditions: 90 min at room temperature; competition with 0.2 nM [125I]-metastin (45-54); Flp-In T-Rex 293 kisspeptin membranes; metal complexes nonradioactive Ga, In, Lu; read-out: hKiSSR Binding Ki (90 min)
In short: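 Radioligand competition: 0.2 nM [125I]-metastin (45-54) displaced by test ligand (usually 0–10,000 nM) over 90 min at room temperature, pH 7.4 buffer with 0.1% BSA. Receptor source is crude membrane (5–10 μg) from tetracycline-induced Flp-In T-Rex 293 cells. Bound label filtered and counted; Ki from non-linear regression.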

Ki	SMILES
< 10 nM	Cc1ccc(CNCC(=O)N2CCC(NC(=O)[C@H](CC(C)C)NC(=O)NNC(=O)[C@H](Cc3ccccc3)NC(=O)[C@@H](NC(=O)[C@H](CC(N)=O)NC(=O)[C@@H](Cc3ccncc3)NC(=O)[C@@H](Cc3ccc(O)cc3)NC(=O)CCCCCNC(=O)CN3CCN(CC(=O)O)CCN(CC(=O)O)CCN(CC(=O)O)CC3)[C@@H](C)O)(C(=O)N[C@@H](Cc3c[nH]c4ccccc34)C(N)=O)CC2)cc1F [Compound 31] ({DOTA-Ahx}-[dY][d4Pal]NTF[azaGly]L[Api](Gly(N-(3-F-4-Me-benzyl)))W-NH2)
< 10 nM	Cc1ccc(CCC(=O)NCCOCCOCCC(=O)N[C@H](Cc2ccc(O)cc2)C(=O)N[C@@H](CCCCNC(=O)CN2CCN(CC(=O)O)CCN(CC(=O)O)CCN(CC(=O)O)CC2)C(=O)N[C@@H](CC(N)=O)C(=O)N[C@H](C(=O)N[C@@H](Cc2ccccc2)C(=O)NNC(=O)N[C@@H](CC(C)C)C(=O)NC2(C(=O)N[C@@H](Cc3ccccc3)C(N)=O)CCN(C(=N)N)CC2)[C@@H](C)O)cc1 [Compound 322] ({Hydrocinnamoyl(4-Me)-PEG2}-[dY]K(DOTA)NTF[azaGly]L[Api(1-amidino)]F-NH2)
< 10 nM	CCCCCCCCCCCCCCCC(=O)N[C@H](Cc1ccc(O)cc1)C(=O)N[C@@H](CCCCNC(=O)CN1CCN(CC(=O)O)CCN(CC(=O)O)CCN(CC(=O)O)CC1)C(=O)N[C@@H](CC(N)=O)C(=O)N[C@H](C(=O)N[C@@H](Cc1ccccc1)C(=O)NNC(=O)N[C@@H](CC(C)C)C(=O)NC1(C(=O)N[C@@H](Cc2ccc(O)cc2)C(N)=O)CCN(C(=N)N)CC1)[C@@H](C)O [Compound 330] (Palmitoyl-[dY]K(DOTA)NTF[azaGly]L[Api(1-amidino)]Y-NH2)
> 100 nM	Cc1ccc(CNCC(=O)N2CCC(NC(=O)[C@H](CC(C)C)NC(=O)NNC(=O)[C@H](Cc3ccccc3)NC(=O)CN3CCC(NC(=O)CN4CCN(CC(=O)O)CCN(CC(=O)O)CCN(CC(=O)O)CC4)CC3)(C(=O)N[C@@H](Cc3c[nH]cn3)C(N)=O)CC2)cc1F [Compound 248] ({DOTA}-[X1]F[azaGly]L[Api](Gly(N-(3-F-4-Me-benzyl)))H-NH2)
< 10 nM	CNCC(=O)N1CCC(NC(=O)[C@H](CC(C)C)NC(=O)NNC(=O)[C@H](Cc2ccccc2)NC(=O)[C@@H](NC(=O)[C@H](CC(N)=O)NC(=O)[C@H](Cc2ccc(C(=O)c3ccccc3)cc2)NC(=O)[C@@H](Cc2ccc(O)cc2)NC(=O)CCCCCNC(=O)CN2CCN(CC(=O)O)CCN(CC(=O)O)CCN(CC(=O)O)CC2)[C@@H](C)O)(C(=O)N[C@@H](Cc2c[nH]c3ccccc23)C(N)=O)CC1 [Compound 346] ({DOTA-Ahx}-[dY][Bpa]NTF[azaGly]L[Api](Sar)W-NH2)
< 10 nM	Cc1ccc(CNCC(=O)N2CCC(NC(=O)[C@H](CC(C)C)NC(=O)NNC(=O)[C@H](Cc3ccccc3)NC(=O)c3ccc(CNC(=O)CN4CCN(CC(=O)O)CCN(CC(=O)O)CCN(CC(=O)O)CC4)cc3)(C(=O)N[C@@H](Cc3c[nH]c4ccccc34)C(N)=O)CC2)cc1F [Compound 109] ({DOTA-4Amb}-F[azaGly]L[Api](Gly(N-(3-F-4-Me-benzyl)))W-NH2)
< 10 nM	Cc1ccc(CNCC(=O)N2CCC(NC(=O)[C@H](CC(C)C)NC(=O)NNC(=O)[C@H](Cc3ccccc3)NC(=O)[C@@H](NC(=O)CN3CCC(NC(=O)CN4CCN(CC(=O)O)CCN(CC(=O)O)CCN(CC(=O)O)CC4)CC3)[C@@H](C)O)(C(=O)N[C@@H](Cc3c[nH]c4ccccc34)C(N)=O)CC2)cc1F [Compound 233] ({DOTA}-[X1]TF[azaGly]L[Api](Gly(N-(3-F-4-Me-benzyl)))W-NH2)
10 to 100 nM	Cc1ccc(CCCC(=O)N2CCC(NC(=O)[C@H](CC(C)C)NC(=O)NNC(=O)[C@H](Cc3ccccc3)NC(=O)CCCCCNC(=O)CN3CCN(CC(=O)O)CCN(CC(=O)O)CCN(CC(=O)O)CC3)(C(=O)N[C@@H](Cc3c[nH]c4ccccc34)C(N)=O)CC2)cc1 [Compound 7] ({DOTA-Ahx}-F[azaGly]L[Api](Butanoyl(4-(4-MePh)))W-NH2)
< 10 nM	Cc1ccc(CNCC(=O)N2CCC(NC(=O)[C@H](CC(C)C)NC(=O)NNC(=O)[C@H](Cc3cccc(F)c3)NC(=O)[C@@H](NC(=O)[C@H](CC(N)=O)NC(=O)[C@H](CCC(=O)O)NC(=O)[C@@H](Cc3ccc(O)cc3)NC(=O)CCCCCNC(=O)CN3CCN(CC(=O)O)CCN(CC(=O)O)CCN(CC(=O)O)CC3)[C@@H](C)O)(C(=O)N[C@@H](Cc3c[nH]c4ccccc34)C(N)=O)CC2)cc1F [Compound 36] ({DOTA-Ahx}-[dY]ENT[Phe(3-F)][azaGly]L[Api](Gly(N-(3-F-4-Me-benzyl)))W-NH2)
< 10 nM	CCCCCCCCCCCCCCCC(=O)N[C@H](Cc1ccc(O)cc1)C(=O)N[C@@H](CCCCNC(=O)CN1CCN(CC(=O)O)CCN(CC(=O)O)CCN(CC(=O)O)CC1)C(=O)N[C@@H](CC(N)=O)C(=O)N[C@H](C(=O)N[C@@H](Cc1ccccc1)C(=O)NNC(=O)N[C@@H](CC(C)C)C(=O)NC1(C(=O)N[C@@H](Cc2c[nH]c3ccccc23)C(N)=O)CCN(C(=N)N)CC1)[C@@H](C)O [Compound 328] (Palmitoyl-[dY]K(DOTA)NTF[azaGly]L[Api(1-amidino)]W-NH2)
< 10 nM	Cc1ccc(CCCC(=O)N[C@H](Cc2ccc(O)cc2)C(=O)N[C@H](Cc2c[nH]c3ccccc23)C(=O)N[C@@H](CC(N)=O)C(=O)N[C@H](C(=O)N[C@@H](Cc2ccccc2)C(=O)NNC(=O)N[C@@H](CC(C)C)C(=O)NC2(C(=O)N[C@@H](Cc3c[nH]c4ccccc34)C(N)=O)CCN(C(=O)CNCc3ccc(C)c(F)c3)CC2)[C@@H](C)O)cc1 [Compound 403] ({Butanoyl(4-(4-MePh))}-[dY][dW]NTF[azaGly]L[Api](Gly(N-(3-F-4-Me-benzyl)))W-NH2)
< 10 nM	Cc1ccc(CCC(=O)NCCOCCOCCC(=O)N[C@H](Cc2ccc(O)cc2)C(=O)N[C@@H](CCCCNC(=O)CN2CCN(CC(=O)O)CCN(CC(=O)O)CCN(CC(=O)O)CC2)C(=O)N[C@@H](CC(N)=O)C(=O)N[C@H](C(=O)N[C@@H](CC2CCCCC2)C(=O)NNC(=O)N[C@@H](CC(C)C)C(=O)NC2(C(=O)N[C@@H](Cc3c[nH]c4ccccc34)C(N)=O)CCN(C(=N)N)CC2)[C@@H](C)O)cc1 [Compound 326] ({Hydrocinnamoyl(4-Me)-PEG2}-[dY]K(DOTA)NT[Cha][azaGly]L[Api(1-amidino)]W-NH2)
10 to 100 nM	Cc1ccc(CNCC(=O)N2CCC(NC(=O)[C@@H](CC(C)C)NC(=O)NNC(=O)[C@H](Cc3ccccc3)NC(=O)c3ccc(CNC(=O)CN4CCN(CC(=O)O)CCN(CC(=O)O)CCN(CC(=O)O)CC4)cc3)(C(=O)N[C@@H](Cc3c[nH]c4ccccc34)C(N)=O)CC2)cc1F [Compound 260] ({DOTA-4Amb}-F[azaGly][dL][Api](Gly(N-(3-F-4-Me-benzyl)))W-NH2)
< 10 nM	Cc1ccc(CNCC(=O)N2CCC(NC(=O)[C@H](CC(C)C)NC(=O)NNC(=O)[C@H](Cc3ccccc3)NC(=O)[C@@H](NC(=O)[C@H](CC(N)=O)NC(=O)[C@@H](Cc3c[nH]c4ccccc34)NC(=O)[C@@H](Cc3ccc(O)cc3)NC(=O)CCCCCNC(=O)CN3CCN(CC(=O)O)CCN(CC(=O)O)CCN(CC(=O)O)CC3)[C@@H](C)O)(C(=O)N[C@@H](Cc3ccc(O)cc3)C(N)=O)CC2)cc1F [Compound 366] ({DOTA-Ahx}-[dY][dW]NTF[azaGly]L[Api](Gly(N-(3-F-4-Me-benzyl)))Y-NH2)
< 10 nM	Cc1ccc(CCCC(=O)NCCCC[C@@H](NC(=O)CCCCCNC(=O)CN2CCN(CC(=O)O)CCN(CC(=O)O)CCN(CC(=O)O)CC2)C(=O)N[C@H](Cc2ccc(O)cc2)C(=O)N[C@H](Cc2ccc3ccccc3c2)C(=O)N[C@@H](CC(N)=O)C(=O)N[C@H](C(=O)N[C@@H](Cc2ccccc2)C(=O)NNC(=O)N[C@@H](CC(C)C)C(=O)NC2(C(=O)N[C@@H](Cc3ccccc3)C(N)=O)CCN(C(=N)N)CC2)[C@@H](C)O)cc1 [Compound 309] ({DOTA-Ahx}-[dK](Butanoyl(4-(4-MePh)))[dY][d2Nal]NTF[azaGly]L[Api(1-amidino)]F-NH2)
< 10 nM	CC(C)C[C@H](NC(=O)NNC(=O)[C@H](Cc1ccccc1)NC(=O)[C@@H](NC(=O)[C@H](CC(N)=O)NC(=O)[C@@H](Cc1ccc2ccccc2c1)NC(=O)CCCCCNC(=O)CN1CCN(CC(=O)O)CCN(CC(=O)O)CCN(CC(=O)O)CC1)[C@@H](C)O)C(=O)NC1(C(=O)N[C@@H](Cc2ccccc2)C(N)=O)CCN(C(=N)N)CC1 [Compound 301] ({DOTA-Ahx}-[d2Nal]NTF[azaGly]L[Api(1-amidino)]F-NH2)
< 10 nM	CCCCCCCC(=O)N[C@H](Cc1ccc(O)cc1)C(=O)N[C@@H](CCCCNC(=O)CN1CCN(CC(=O)O)CCN(CC(=O)O)CCN(CC(=O)O)CC1)C(=O)N[C@@H](CC(N)=O)C(=O)N[C@H](C(=O)N[C@@H](Cc1ccccc1)C(=O)NNC(=O)N[C@@H](CC(C)C)C(=O)NC1(C(=O)N[C@@H](Cc2c[nH]c3ccccc23)C(N)=O)CCN(C(=O)CNCc2ccc(C)c(F)c2)CC1)[C@@H](C)O [Compound 181] (Octanoyl-[dY]K(DOTA)NTF[azaGly]L[Api](Gly(N-(3-F-4-Me-benzyl)))W-NH2)
< 10 nM	Cc1ccc(CNCC(=O)N2CCC(NC(=O)[C@H](CC(C)C)NC(=O)NNC(=O)[C@H](Cc3ccccc3)NC(=O)[C@@H](NC(=O)[C@H](CC(N)=O)NC(=O)[C@H](Cc3ccc(-c4ccccc4)cc3)NC(=O)[C@@H](Cc3ccc(O)cc3)NC(=O)CCCCCNC(=O)CN3CCN(CC(=O)O)CCN(CC(=O)O)CCN(CC(=O)O)CC3)[C@@H](C)O)(C(=O)N[C@@H](Cc3c[nH]c4ccccc34)C(N)=O)CC2)cc1F [Compound 363] ({DOTA-Ahx}-[dY][Bip]NTF[azaGly]L[Api](Gly(N-(3-F-4-Me-benzyl)))W-NH2)
< 10 nM	Cc1ccc(CNCC(=O)N2CCC(NC(=O)[C@H](CC(C)C)NC(=O)NNC(=O)[C@H](Cc3cccc(F)c3)NC(=O)[C@@H](NC(=O)[C@H](CC(N)=O)NC(=O)[C@H](CCCCN)NC(=O)[C@@H](Cc3ccc(O)cc3)NC(=O)CCCCCNC(=O)CN3CCN(CC(=O)O)CCN(CC(=O)O)CCN(CC(=O)O)CC3)[C@@H](C)O)(C(=O)N[C@@H](Cc3c[nH]c4ccccc34)C(N)=O)CC2)cc1F [Compound 27] ({DOTA-Ahx}-[dY]KNT[Phe(3-F)][azaGly]L[Api](Gly(N-(3-F-4-Me-benzyl)))W-NH2)
